Entries after “also recorded” stand apart in the source; their conditions may differ. Where no end group is shown, it is not given here. [ ]: non-standard residue; d: D form. pT = C[C@@H](OP(=O)(O)O)[C@H](N)C(=O)O

The results in this text go back to patent US20060147922A1, “Novel diagnostic and therapeutic methods and reagents therefor” (priority 2002, published 2006).

Test [1] has as its target T1, PR B (Homo sapiens, UniProt P06401).
T1 sequence (P06401 1-933): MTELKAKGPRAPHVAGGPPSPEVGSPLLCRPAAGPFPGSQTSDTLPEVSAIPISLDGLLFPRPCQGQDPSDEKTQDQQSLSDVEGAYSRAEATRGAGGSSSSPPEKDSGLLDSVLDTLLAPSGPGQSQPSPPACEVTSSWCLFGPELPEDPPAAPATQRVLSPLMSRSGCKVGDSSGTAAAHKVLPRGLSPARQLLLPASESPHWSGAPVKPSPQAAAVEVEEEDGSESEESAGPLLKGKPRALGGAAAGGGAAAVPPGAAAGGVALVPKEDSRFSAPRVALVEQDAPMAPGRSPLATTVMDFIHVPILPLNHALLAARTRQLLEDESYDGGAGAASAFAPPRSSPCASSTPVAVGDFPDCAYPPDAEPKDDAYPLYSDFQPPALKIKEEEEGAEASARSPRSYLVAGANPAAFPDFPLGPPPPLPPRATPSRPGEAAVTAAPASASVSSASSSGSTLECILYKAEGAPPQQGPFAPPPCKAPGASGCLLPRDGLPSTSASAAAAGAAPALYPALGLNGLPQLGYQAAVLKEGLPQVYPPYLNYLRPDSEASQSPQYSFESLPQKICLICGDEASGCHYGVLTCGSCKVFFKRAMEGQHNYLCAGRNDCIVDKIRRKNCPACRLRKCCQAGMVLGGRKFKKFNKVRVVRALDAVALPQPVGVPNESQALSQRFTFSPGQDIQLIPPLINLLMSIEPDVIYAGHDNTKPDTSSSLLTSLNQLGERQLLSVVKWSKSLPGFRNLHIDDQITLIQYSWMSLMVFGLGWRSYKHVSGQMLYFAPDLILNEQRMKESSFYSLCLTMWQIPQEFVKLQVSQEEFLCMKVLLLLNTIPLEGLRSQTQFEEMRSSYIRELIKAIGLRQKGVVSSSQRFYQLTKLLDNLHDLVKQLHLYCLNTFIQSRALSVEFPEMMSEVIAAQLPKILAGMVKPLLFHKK
Description: Nuclear receptor transactivation assay (MMTV-luciferase reporter). It is filed as cell-based. Conditions: HEK 293 cells, 24 h.
Description: (D) Effect of EDD on response to the synthetic progestin ORG2058. HEK 293 cells were transfected for reporter assay along with a transfection control plasmid (pRL-TK). Cells were harvested for luciferase assay following 24 h treatment with increasing concentrations of ORG2058.
HEK 293 or COS7 cells were plated in 6-well plates (2×10^5 cells/well) and the medium changed to 2% charcoal-stripped FCS the following day. Transfection was carried out using 3-4 μl Fugene 6 Reagent (Roche) with 1-2 μg DNA comprised of 90 ng receptor expression vector, 450 ng luciferase reporter vector and 1.2 μg EDD, EDDM or SRC-1 cDNAs in either pRcCMV or pSG5, or empty vector, and 200 ng GFP expression vector pGFP20. […] In some experiments cell number was monitored using the CellTiter96® Proliferation Assay (Promega Corp., Madison, USA). Cells in 6-well plates were analysed for GFP expression by fluorescence microscopy to determine transfection efficiency and also used for preparation of protein lysates so that protein expression levels of various constructs could be compared. […] In some experiments pRSV-β-gal or pRL-TK (Promega Corp., Madison, USA) vectors were transfected in place of pGFP20 and transfection efficiency monitored by assaying for β-galactosidase or Renilla luciferase activity respectively.

Test [2] has as its target T2, PR(CDE) (Homo sapiens, UniProt P06401).
T2 construct: PR(CDE) (aa 456-933) regions into pGEX4T2 for GST fusion protein expression; made in house; host or cells: GST fusion from E. coli BL21; EDDF1 / SRC-1 by coupled in vitro transcription/translation (TNT Quick, Promega)
T2 sequence (P06401 456-933): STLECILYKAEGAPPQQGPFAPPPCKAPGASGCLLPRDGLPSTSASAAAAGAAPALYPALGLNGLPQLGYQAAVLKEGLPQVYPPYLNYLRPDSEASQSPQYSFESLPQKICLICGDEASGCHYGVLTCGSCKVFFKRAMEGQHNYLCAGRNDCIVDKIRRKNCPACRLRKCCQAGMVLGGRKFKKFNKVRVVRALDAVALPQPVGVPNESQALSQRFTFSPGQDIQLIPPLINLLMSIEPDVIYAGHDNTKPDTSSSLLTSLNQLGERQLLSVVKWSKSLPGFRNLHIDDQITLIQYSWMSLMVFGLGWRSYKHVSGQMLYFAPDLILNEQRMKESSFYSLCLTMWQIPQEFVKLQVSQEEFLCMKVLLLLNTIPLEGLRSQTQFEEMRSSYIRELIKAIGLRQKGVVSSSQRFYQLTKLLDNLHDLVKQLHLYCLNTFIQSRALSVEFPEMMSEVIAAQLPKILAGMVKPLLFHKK
Description: GST-PR(CDE) pull-down of in vitro translated EDDF1 or SRC-1. In kind it is binding. As to conditions: in vitro assays (data not shown).

Test [3] deals with BRCA2-chk2 interaction. Description: chk2 immunoprecipitation, western blot for BRCA2, from MCF-7 nuclear extracts after DNA damaging agents. It is filed as cell-based, human. Conditions: phleomycin or hydroxyurea. An excerpt:
(§1) (B) Interactions between EDD, BRCA2 and chk2 are modified in response to DNA damaging agents. Nuclear extracts from MCF-7 cells that had been cultured in the presence of the radiomimetic phleomycin or the UV mimic hydroxyurea (HU), or from control MCF-7 cells, were subjected to immunoprecipitation with polyclonal chk2 antibody (N17). Following precipitation of immune complexes and extensive washing, bound proteins were separated by SDS-PAGE and western blotted for EDD, BRCA2 or chk2.
(§2) MCF-7 cells were incubated in RPMI containing 0.5% foetal bovine serum for 18 h before addition of phleomycin (Cayla, France) at 100 μg/ml, hydroxyurea (Calbiochem, CA, USA) at 2 mM or PBS vehicle, for 6 h. Cells were harvested for total protein or nuclear protein extracts as described above.
A general note: In western blotting, separated proteins are transferred to a membrane and probed.

In test [4] the test system is EDD-chk2 interaction. Description: chk2 immunoprecipitation / GSTchk2-N pull-down of EDD from MCF-7 nuclear extracts after DNA damaging agents. It is filed as cell-based, human. Conditions: for amount of EDD associating with chk2: MCF-7 nuclear extracts, phleomycin 100 μg/ml or hydroxyurea 2 mM. As for the experimental part:
Nuclear extracts from MCF-7 cells that had been cultured in the presence of the radiomimetic phleomycin (100 μg per ml) or from control MCF-7 cells were immunoprecipitated with polyclonal CHK2 antibody (N17) or incubated with goat IgG as a negative control. Following precipitation of immune complexes and extensive washing, bound proteins were separated by SDS-PAGE and western blofted for EDD or CHK2.
(C) Nuclear extracts from MCF-7 cells that had been cultured in the presence of phleomycin (100 μg per ml) or from control MCF-7 cells were incubated with GSTCHK2-N or with GST alone bound to glutathione-Sepharose beads. Bound proteins were separated by SDS-PAGE and immunoblotted for EDD and GST.
as §1, §2

In test [5] the target is T3, chk2 FHA domain (Homo sapiens, UniProt O96017).
T3 construct: made in house; host or cells: GST fusion from E. coli BL21; EDDF5 by coupled in vitro transcription/translation (TNT Quick, Promega)
T3 sequence (O96017 1-225): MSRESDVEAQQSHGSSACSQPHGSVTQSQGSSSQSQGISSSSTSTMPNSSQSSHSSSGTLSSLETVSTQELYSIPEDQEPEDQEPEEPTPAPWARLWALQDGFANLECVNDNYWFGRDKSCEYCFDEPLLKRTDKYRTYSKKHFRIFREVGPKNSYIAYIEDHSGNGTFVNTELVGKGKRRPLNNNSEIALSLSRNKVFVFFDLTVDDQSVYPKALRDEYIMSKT
Description: GSTchk2-N pull-down of in vitro translated EDD in presence of FHA-binding phosphopeptide. Conditions: pre-incubation of GSTchk2-N fusion protein with peptide. As for the experimental part:
(D) The phosphopeptide-binding interface of the chk2 FHA domain is required for EDD binding. In vitro translated ^35S-labelled EDD derivative EDDF5 (aa 889-2799) was incubated with GSTchk2-N or GSTchk2-N derivatives containing R117A or I157T substitutions, or with GST alone bound to glutathione-Sepharose beads. The incubations with GSTchk2-N or GSTchk2-N(I157T) were carried out in the presence or absence of an FHA-binding phosphopeptide at 0, 80 or 150 μM. Bound EDD was detected by SDS-PAGE and autoradiography.
GST-tagged fusion proteins were prepared from E. coli strain BL21 according to established protocols (Pharmacia Protocol Handbook). Soluble fusion proteins were bound to glutathione agarose and quantitated via Coomassie blue staining against protein standards. 35S-labelled EDD protein and mutants or SRC-1 were synthesised in a coupled in vitro transcription/translation system (TNT Quick, Promega) and 10-20 μl reaction mixture was diluted in 1% Triton X-100 lysis buffer (Callaghan et al, Oncogene 17, 3479-3491, 1998) and incubated with 5 μg of GST, GST-importin α5, GST-PR(CDE) or GST-CIB coupled to glutathione agarose beads at 4° C. for 2 h. Beads were collected by centrifugation, washed extensively in lysis buffer and resuspended in SDS-PAGE sample buffer. After boiling, bound protein was visualised following SDS-PAGE and autoradiography. […]

Test [6] concerns EDD-CIB interaction. Description: GST-CIB pull-down of EDD from MCF-7 nuclear extracts after DNA damaging agents. In kind it is cell-based, human. As for the experimental part: (D) Interaction of EDD and CIB in HEK 293 and MCF-7 cells. Left, HEK 293 cells overexpressing mutant EDD were transfected with a plasmid encoding Flag-tagged CIB or empty vector (vec). Extracts from these cells were subjected to immunoprecipitation using anti-FLAG Ab M2. Right, nuclear extracts prepared from MCF-7 cells following treatment with DNA damage agents phleomycin (Phleo) or hydroxyurea (HU) were incubated with either GST or GST-CIB fusion protein bound to glutathione-Sepharose beads. Bound proteins from both procedures were analysed by SDS-PAGE and western blotted for EDD and amounts bound are indicated as percentages relative to input.
For GST fusion protein pull-down of endogenous or recombinant EDD from cell lysates, 0.5 to 1 mg total protein was incubated with 5 μg GST or GST fusion protein bound to glutathione beads for 1-2 h at 4° C. Beads were washed extensively in 1% Triton X-100 lysis buffer and bound proteins resolved by SDS-PAGE and detected by immunoblotting with EDD antisera (Callaghan et al, Oncogene 17, 3479-3491, 1998). For immunoprecipitation, 10 μl importin α5 antisera (Peter Palese, Mount Sinai School of Medicine) was incubated with 0.5 to 1 mg cell lysate (4° C. for 1 h). Antibody conjugates were captured on protein A sepharose beads (4° C. for 1 h) and washed extensively in lysis buffer. […]

Turning to `CCC1CC2C3CCC4=CC(=O)CCC4C3CCC2(C)C1C(=O)CO` (centres unmarked) [ORG2058], the “ORG2058 concentration at which that maximal response was exceeded” value in test [1] (with EDD overexpression) stood at 100 pM. In addition, the “ORG2058 concentration giving maximal response (luciferase activity)” value in test [1] (without EDD transfection) is recorded as 10 nM. Further, the “effect of PR ligand on interactions between PR(CDE) and SRC-1 or EDDF1” value in test [2] is recorded as “not affected”.

Regarding `NC(=O)NO` [hydroxyurea], the “amount of BRCA2 associated with chk2” value in test [3] is recorded as “considerably reduced”. In test [4], the “amount of EDD associating with chk2” value is “no effect on the association with EDD”.

Turning to “RWFDT(P)YLIRR: phosphopeptide that binds strongly to the FHA domain (RWFD[pT]YLIRR)”, the “peptide concentration that abolished binding between EDD and chk2-N” value in test [5] was “greater than 50 μM”.

phleomycin: the “amount of BRCA2 associated with chk2” value in test [3] is given as “no effect on the amount of BRCA2 associated with chk2”. The EDD protein levels entry in test [6] (MCF-7 cells after treatment) is “unchanged”. Moreover, the “association between EDD and CIB” value in test [6] (MCF-7 cells, phleomycin 100 μg/ml 6 h, vs untreated or hydroxyurea-treated cells) is “significantly less association between EDD and CIB; also recorded: decrease in the amount of associating EDD”. Also, in test [4] (MCF-7 nuclear extracts after treatment), the “mobility and levels of EDD protein” value is recorded as “no change in either the mobility or levels of EDD protein”. For the same compound, in test [4], the “amount of EDD associating with chk2” value was “considerably reduced; also recorded: diminished; also recorded: Decreased association between EDD and CHK2”.
